Read-outs that look alike come from different tables or passages of the source.
Tests used:
EGFR Del19/T790M/C797S = EGFR Del19/T790M/C797S (Homo sapiens, UniProt P00533, C797S/DEL746-750/T790M); test: Biochemical EGFR kinase inhibition assay (Lance Ultra TR-FRET), triple mutant del19/T790M/C797S
Outline: (§1)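 Enzyme reactions lasted 1 hour at room temperature with test compounds between 0.003 and 10 μM, followed by 10 mM EDTA quench.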

EGFR L858R/T790M/C797S = EGFR L858R/T790M/C797S (Homo sapiens, UniProt P00533, C797S/L858R/T790M); test: Biochemical EGFR kinase inhibition assay (Lance Ultra TR-FRET), triple mutant L858R/T790M/C797S
Outline: as §1

EGFR Del19/C797S = EGFR Del19/C797S (Homo sapiens, UniProt P00533, C797S/DEL746-750); test: Biochemical EGFR kinase inhibition assay (Lance Ultra TR-FRET), double mutant del19/C797S
Outline: as §1

EGFR L858R/C797S = EGFR L858R/C797S (Homo sapiens, UniProt P00533, C797S/L858R); test: Biochemical EGFR kinase inhibition assay (Lance Ultra TR-FRET), double mutant L858R/C797S
Outline: as §1

EGFR wildtype (WT) = EGFR wildtype (WT) (Homo sapiens, UniProt P00533); test: Biochemical EGFR kinase inhibition assay (Lance Ultra TR-FRET), wildtype
Outline: as §1

[1] = ATP at Km, read-out: IC50 Del19/T790M/C797S (nM), Km ATP
[2] = IC50 Del19/T790M/C797S (nM), 100 μM ATP
[3] = ATP at Km, read-out: IC50 L858R/T790M/C797S (nM), Km ATP
[4] = IC50 L858R/T790M/C797S (nM), 100 μM ATP
[5] = ATP at Km, read-out: IC50 Del19/C797S (nM), Km ATP
[6] = IC50 Del19/C797S (nM), 100 μM ATP
[7] = ATP at Km, read-out: IC50 L858R/C797S (nM), Km ATP
[8] = IC50 L858R/C797S (nM), 100 μM ATP
[9] = ATP at Km, read-out: IC50 WT (nM), Km ATP
[10] = Km ATP, read-out: IC50 Del19/T790M/C797S (nM), Km ATP
[11] = Km ATP, read-out: IC50 L858R/T790M/C797S (nM), Km ATP
[12] = Km ATP, read-out: IC50 Del19/C797S (nM), Km ATP
[13] = Km ATP, read-out: IC50 L858R/C797S (nM), Km ATP
[14] = Km ATP, read-out: IC50 WT (nM), Km ATP

Chain of EGFR Del19/T790M/C797S (P00533 with tags, fused parts or gaps DEL746-750/T790M/C797S): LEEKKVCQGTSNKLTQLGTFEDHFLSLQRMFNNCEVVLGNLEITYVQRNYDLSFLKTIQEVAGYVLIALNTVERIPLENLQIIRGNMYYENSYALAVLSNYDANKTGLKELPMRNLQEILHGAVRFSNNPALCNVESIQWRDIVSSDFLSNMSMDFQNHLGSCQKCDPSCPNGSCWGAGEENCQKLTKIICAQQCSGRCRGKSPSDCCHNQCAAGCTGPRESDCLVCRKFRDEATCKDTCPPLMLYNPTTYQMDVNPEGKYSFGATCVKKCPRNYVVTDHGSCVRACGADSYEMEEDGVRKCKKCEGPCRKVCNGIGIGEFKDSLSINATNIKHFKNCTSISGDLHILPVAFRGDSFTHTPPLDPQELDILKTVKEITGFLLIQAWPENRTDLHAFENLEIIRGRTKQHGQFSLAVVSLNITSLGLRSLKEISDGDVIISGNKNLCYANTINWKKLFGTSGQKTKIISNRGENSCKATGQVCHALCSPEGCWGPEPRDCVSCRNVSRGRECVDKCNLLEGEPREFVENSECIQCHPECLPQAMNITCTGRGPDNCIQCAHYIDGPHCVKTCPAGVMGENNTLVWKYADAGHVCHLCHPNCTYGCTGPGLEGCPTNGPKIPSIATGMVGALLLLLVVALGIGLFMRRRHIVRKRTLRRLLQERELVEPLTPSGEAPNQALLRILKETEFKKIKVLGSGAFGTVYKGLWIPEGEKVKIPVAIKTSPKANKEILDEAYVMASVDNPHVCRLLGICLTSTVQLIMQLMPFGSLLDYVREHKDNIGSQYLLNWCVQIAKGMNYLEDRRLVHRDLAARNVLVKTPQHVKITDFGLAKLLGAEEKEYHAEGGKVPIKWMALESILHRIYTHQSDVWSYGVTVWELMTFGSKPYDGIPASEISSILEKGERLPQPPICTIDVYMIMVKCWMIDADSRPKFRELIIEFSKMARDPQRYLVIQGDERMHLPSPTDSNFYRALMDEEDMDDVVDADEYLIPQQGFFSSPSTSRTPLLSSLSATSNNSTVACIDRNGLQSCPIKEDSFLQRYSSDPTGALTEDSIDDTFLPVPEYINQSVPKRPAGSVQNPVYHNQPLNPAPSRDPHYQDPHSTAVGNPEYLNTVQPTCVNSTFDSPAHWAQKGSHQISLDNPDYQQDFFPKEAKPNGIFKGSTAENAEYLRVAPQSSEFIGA
Chain of EGFR L858R/C797S (P00533 25-1210 C797S/L858R): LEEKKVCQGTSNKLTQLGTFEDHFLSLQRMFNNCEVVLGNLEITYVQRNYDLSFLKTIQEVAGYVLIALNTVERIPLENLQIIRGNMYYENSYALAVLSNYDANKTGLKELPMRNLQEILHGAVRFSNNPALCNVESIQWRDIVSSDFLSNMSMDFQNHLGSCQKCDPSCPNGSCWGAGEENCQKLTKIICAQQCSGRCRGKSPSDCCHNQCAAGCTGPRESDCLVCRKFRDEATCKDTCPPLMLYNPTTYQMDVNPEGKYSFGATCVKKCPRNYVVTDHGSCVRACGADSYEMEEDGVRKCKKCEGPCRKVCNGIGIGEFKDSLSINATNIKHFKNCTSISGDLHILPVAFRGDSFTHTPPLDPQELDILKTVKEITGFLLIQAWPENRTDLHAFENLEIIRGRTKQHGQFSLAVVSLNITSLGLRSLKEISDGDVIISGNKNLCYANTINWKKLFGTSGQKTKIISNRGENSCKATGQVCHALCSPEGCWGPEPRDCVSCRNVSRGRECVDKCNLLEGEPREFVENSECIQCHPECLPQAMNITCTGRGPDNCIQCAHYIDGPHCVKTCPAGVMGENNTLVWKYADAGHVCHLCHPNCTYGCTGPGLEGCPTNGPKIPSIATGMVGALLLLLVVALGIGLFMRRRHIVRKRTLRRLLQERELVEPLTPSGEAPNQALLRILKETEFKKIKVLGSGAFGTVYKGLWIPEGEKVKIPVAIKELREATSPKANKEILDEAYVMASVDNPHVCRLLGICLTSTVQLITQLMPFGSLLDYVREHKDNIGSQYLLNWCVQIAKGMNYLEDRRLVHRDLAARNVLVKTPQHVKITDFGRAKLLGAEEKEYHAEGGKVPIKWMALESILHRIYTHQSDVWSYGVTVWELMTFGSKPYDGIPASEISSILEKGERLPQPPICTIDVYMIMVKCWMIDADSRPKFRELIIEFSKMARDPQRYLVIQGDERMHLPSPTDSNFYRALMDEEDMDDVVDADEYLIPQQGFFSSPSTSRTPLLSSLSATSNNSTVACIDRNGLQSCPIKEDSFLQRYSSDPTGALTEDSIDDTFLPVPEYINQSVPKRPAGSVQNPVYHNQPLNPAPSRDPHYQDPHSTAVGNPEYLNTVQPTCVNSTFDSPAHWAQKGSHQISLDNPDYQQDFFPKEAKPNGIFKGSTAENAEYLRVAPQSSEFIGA
Chain of EGFR Del19/C797S (P00533 with tags, fused parts or gaps DEL746-750/C797S): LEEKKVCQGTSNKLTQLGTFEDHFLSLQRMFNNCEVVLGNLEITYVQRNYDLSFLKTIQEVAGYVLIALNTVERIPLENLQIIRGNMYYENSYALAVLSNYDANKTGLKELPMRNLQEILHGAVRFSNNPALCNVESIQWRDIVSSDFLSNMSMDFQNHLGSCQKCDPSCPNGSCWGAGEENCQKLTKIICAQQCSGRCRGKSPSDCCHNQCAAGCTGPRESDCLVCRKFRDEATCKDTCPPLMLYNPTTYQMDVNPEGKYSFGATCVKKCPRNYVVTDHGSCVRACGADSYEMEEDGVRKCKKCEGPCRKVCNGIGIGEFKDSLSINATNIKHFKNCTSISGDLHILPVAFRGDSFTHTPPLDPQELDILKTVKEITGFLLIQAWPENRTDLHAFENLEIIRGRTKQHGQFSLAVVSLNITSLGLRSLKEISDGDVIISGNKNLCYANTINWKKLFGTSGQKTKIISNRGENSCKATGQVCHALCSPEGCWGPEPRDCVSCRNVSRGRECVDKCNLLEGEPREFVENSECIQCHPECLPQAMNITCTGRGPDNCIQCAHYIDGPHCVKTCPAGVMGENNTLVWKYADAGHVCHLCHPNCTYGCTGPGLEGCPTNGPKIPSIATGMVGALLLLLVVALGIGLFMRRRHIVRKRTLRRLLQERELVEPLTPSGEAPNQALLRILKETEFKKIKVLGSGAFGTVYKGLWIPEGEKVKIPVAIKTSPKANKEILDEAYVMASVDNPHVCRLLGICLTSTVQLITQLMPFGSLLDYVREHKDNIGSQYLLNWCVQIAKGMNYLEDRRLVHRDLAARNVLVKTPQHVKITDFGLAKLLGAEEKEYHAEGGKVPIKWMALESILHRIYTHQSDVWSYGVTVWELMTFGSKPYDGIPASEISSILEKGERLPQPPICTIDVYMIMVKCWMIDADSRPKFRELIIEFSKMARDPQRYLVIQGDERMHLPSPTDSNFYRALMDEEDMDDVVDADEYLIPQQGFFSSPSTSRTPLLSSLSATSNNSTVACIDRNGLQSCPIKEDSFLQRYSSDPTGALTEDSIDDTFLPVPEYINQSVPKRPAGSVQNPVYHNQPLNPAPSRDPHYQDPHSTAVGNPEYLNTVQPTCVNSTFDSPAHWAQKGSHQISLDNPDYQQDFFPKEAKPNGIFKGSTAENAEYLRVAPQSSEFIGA
Chain of EGFR L858R/T790M/C797S (P00533 25-1210 T790M/C797S/L858R): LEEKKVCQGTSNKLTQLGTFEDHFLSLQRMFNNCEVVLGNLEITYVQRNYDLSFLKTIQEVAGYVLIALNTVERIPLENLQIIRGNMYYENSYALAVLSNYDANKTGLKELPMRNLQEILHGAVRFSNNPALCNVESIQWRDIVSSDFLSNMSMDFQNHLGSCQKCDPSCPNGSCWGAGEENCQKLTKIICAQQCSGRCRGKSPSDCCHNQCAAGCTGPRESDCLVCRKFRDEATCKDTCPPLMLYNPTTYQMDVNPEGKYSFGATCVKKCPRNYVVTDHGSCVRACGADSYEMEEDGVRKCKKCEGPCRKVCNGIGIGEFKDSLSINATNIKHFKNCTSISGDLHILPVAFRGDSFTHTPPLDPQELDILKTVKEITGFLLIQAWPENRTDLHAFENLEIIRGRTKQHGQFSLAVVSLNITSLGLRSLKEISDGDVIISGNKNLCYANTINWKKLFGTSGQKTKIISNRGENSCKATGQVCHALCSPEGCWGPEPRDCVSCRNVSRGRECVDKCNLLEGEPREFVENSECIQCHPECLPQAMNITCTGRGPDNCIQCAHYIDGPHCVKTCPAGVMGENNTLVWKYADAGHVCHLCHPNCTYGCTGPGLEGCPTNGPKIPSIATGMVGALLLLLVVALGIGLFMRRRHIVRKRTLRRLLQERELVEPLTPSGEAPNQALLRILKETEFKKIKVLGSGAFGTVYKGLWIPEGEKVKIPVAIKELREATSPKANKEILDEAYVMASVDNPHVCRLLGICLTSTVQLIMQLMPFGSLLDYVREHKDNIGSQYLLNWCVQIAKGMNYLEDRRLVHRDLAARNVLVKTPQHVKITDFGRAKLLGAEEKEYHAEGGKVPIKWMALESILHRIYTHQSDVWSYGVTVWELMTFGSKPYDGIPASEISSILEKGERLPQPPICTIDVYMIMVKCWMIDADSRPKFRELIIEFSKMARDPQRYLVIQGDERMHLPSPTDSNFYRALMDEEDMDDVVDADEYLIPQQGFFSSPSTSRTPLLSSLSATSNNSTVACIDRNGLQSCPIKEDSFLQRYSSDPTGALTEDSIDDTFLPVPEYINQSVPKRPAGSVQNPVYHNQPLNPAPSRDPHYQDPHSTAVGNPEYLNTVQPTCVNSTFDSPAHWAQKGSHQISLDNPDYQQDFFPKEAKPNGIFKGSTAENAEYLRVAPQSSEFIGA

CC1(CO)CCN(c2cc(Nc3ccnc(-c4cnn(S(=O)(=O)C5CC5)c4)n3)ncc2C#Cc2ccc(CN3CCOCC3)s2)CC1 [Example 191, (1-(2-((2-(1-(Cyclopropylsulfonyl)-1H-pyrazol-4-yl)pyrimidin-4-yl)amino)-5-((5-(morpholinomethyl)thiophen-2-yl)ethynyl)pyridin-4-yl)-4-methylpiperidin-4-yl)methanol]
IC50 (EGFR Del19/T790M/C797S; [1]): 3 nM
IC50 (EGFR Del19/T790M/C797S; [2]): 7 nM
IC50 (EGFR L858R/T790M/C797S; [3]): 1.5 nM
IC50 (EGFR L858R/T790M/C797S; [4]): 9.8 nM
IC50 (EGFR Del19/C797S; [5]): 2.2 nM
IC50 (EGFR Del19/C797S; [6]): 4.3 nM
IC50 (EGFR L858R/C797S; [7]): 3.2 nM
IC50 (EGFR L858R/C797S; [8]): 21.7 nM
IC50 (EGFR wildtype (WT); [9]): 8.1 nM
IC50 (EGFR wildtype (WT); IC50 WT (nM), 100 μM ATP): 3580 nM

Cn1cc(C#Cc2cnc(Nc3ccnc(-c4cnn(S(=O)(=O)C5CC5)c4)n3)cc2N2CCC3(CCNC3)CC2)cn1 [Example 156, 2-(1-(Cyclopropylsulfonyl)-1H-pyrazol-4-yl)-N-(5-((1-methyl-1H-pyrazol-4-yl)ethynyl)-4-(2,8-diazaspiro[4.5]decan-8-yl)pyridin-2-yl)pyrimidin-4-amine]
IC50 (EGFR Del19/T790M/C797S; [1]): 0.1 nM
IC50 (EGFR Del19/T790M/C797S; [2]): 0.1 nM
IC50 (EGFR L858R/T790M/C797S; [3]): 0.04 nM
IC50 (EGFR L858R/T790M/C797S; [4]): 0.1 nM
IC50 (EGFR Del19/C797S; [5]): 0.3 nM
IC50 (EGFR Del19/C797S; [6]): 0.4 nM
IC50 (EGFR L858R/C797S; [7]): 1.2 nM
IC50 (EGFR L858R/C797S; [8]): 9 nM
IC50 (EGFR wildtype (WT); [9]): 2.6 nM
IC50 (EGFR wildtype (WT); IC50 WT (nM), 100 μM ATP): 2100 nM

O=C(c1ccc(C#Cc2cnc(Nc3ccnc(-c4cnn(S(=O)(=O)C5CC5)c4)n3)cc2N2CCC[C@H](O)C2)cc1)N1CCC(O)CC1 [Example 445, (S)-(4-((6-((2-(1-(Cyclopropylsulfonyl)-1H-pyrazol-4-yl)pyrimidin-4-yl)amino)-4-(3-hydroxypiperidin-1-yl)pyridin-3-yl)ethynyl)phenyl)(4-hydroxypiperidin-1-yl)methanone]
IC50 (EGFR Del19/T790M/C797S; [2]): 0.9 nM
IC50 (EGFR Del19/T790M/C797S; [10]): 0.5 nM
IC50 (EGFR L858R/T790M/C797S; [4]): 0.4 nM
IC50 (EGFR L858R/T790M/C797S; [11]): 0.1 nM
IC50 (EGFR Del19/C797S; [6]): 2 nM
IC50 (EGFR L858R/C797S; [8]): 104 nM
IC50 (EGFR wildtype (WT); IC50 WT (nM), 100 μM ATP): > 10000 nM

Cn1cc(C#Cc2cnc(Nc3ccnc(-c4cnn(S(=O)(=O)C5CC5)c4)n3)cc2N2CCC3(CC2)CC(C)(O)C3)cn1 [Example 13, 7-(2-((2-(1-(Cyclopropylsulfonyl)-1H-pyrazol-4-yl)pyrimidin-4-yl)amino)-5-((1-methyl-1H-pyrazol-4-yl)ethynyl)pyridin-4-yl)-2-methyl-7-azaspiro[3.5]nonan-2-ol]
IC50 (EGFR Del19/T790M/C797S; [2]): 1.4 nM
IC50 (EGFR L858R/T790M/C797S; [4]): 1.1 nM
IC50 (EGFR Del19/C797S; [6]): 3.3 nM
IC50 (EGFR L858R/C797S; [8]): 9.2 nM
IC50 (EGFR wildtype (WT); IC50 WT (nM), 100 μM ATP): 3090 nM

Cn1cc(C#Cc2cnc(Nc3ccnc(-c4cnn(S(=O)(=O)C5CC5)c4)n3)cc2NC2CCCC(F)C2)cn1 (centres unmarked) [Example 74, N^2-(2-(1-(Cyclopropylsulfonyl)-1H-pyrazol-4-yl)pyrimidin-4-yl)-N^4-(3-fluorocyclohexyl)-5-((1-methyl-1H-pyrazol-4-yl)ethynyl)pyridine-2,4-diamine]
IC50 (EGFR Del19/T790M/C797S; [2]): 4.7 nM
IC50 (EGFR L858R/T790M/C797S; [4]): 13.6 nM
IC50 (EGFR Del19/C797S; [6]): 123 nM
IC50 (EGFR L858R/C797S; [8]): 181 nM
IC50 (EGFR wildtype (WT); IC50 WT (nM), 100 μM ATP): > 10000 nM

O=S(=O)(C1CC1)n1cc(-c2nccc(Nc3cc(N[C@H]4CC[C@@H](O)CC4)c(C#Cc4cnn(CC(F)(F)F)c4)cn3)n2)cn1 [Example 339, (1s,4s)-4-((2-((2-(1-(Cyclopropylsulfonyl)-1H-pyrazol-4-yl)pyrimidin-4-yl)amino)-5-((1-(2,2,2-trifluoroethyl)-1H-pyrazol-4-yl)ethynyl)pyridin-4-yl)amino)cyclohexan-1-ol]
IC50 (EGFR Del19/T790M/C797S; [2]): 0.9 nM
IC50 (EGFR Del19/T790M/C797S; [10]): 1 nM
IC50 (EGFR L858R/T790M/C797S; [4]): 1 nM
IC50 (EGFR L858R/T790M/C797S; [11]): 0.5 nM
IC50 (EGFR Del19/C797S; [6]): 7.5 nM
IC50 (EGFR Del19/C797S; [12]): 3.8 nM
IC50 (EGFR L858R/C797S; [8]): 29.7 nM
IC50 (EGFR L858R/C797S; [13]): 4.9 nM
IC50 (EGFR wildtype (WT); IC50 WT (nM), 100 μM ATP): > 10000 nM
IC50 (EGFR wildtype (WT); [14]): 18.2 nM

O=S(=O)(C1CC1)n1cc(-c2nccc(Nc3cc(N[C@@H]4CCC[C@H](O)C4)c(C#Cc4ccc(CN5CCOCC5)cc4)cn3)n2)cn1 [Example 160, (1S,3R)-3-((2-((2-(1-(Cyclopropylsulfonyl)-1H-pyrazol-4-yl)pyrimidin-4-yl)amino)-5-((4-(morpholinomethyl)phenyl)ethynyl)pyridin-4-yl)amino)cyclohexan-1-ol]
IC50 (EGFR Del19/T790M/C797S; [1]): 5.7 nM
IC50 (EGFR Del19/T790M/C797S; [2]): 7.3 nM
IC50 (EGFR L858R/T790M/C797S; [3]): 2.5 nM
IC50 (EGFR L858R/T790M/C797S; [4]): 6.2 nM
IC50 (EGFR Del19/C797S; [5]): 4.1 nM
IC50 (EGFR Del19/C797S; [6]): 10.1 nM
IC50 (EGFR L858R/C797S; [7]): 3.8 nM
IC50 (EGFR L858R/C797S; [8]): 65.6 nM
IC50 (EGFR wildtype (WT); [9]): 64.8 nM
IC50 (EGFR wildtype (WT); IC50 WT (nM), 100 μM ATP): > 10000 nM

CC1(CO)CCN(c2cc(Nc3ccnc(-c4cnn(S(=O)(=O)C5CC5)c4)n3)ncc2C#CCNC(=O)C(F)(F)F)CC1 [Example 288, N-(3-(6-((2-(1-(Cyclopropylsulfonyl)-1H-pyrazol-4-yl)pyrimidin-4-yl)amino)-4-(4-(hydroxymethyl)-4-methylpiperidin-1-yl)pyridin-3-yl)prop-2-yn-1-yl)-2,2,2-trifluoroacetamide]
IC50 (EGFR Del19/T790M/C797S; [2]): 0.2 nM
IC50 (EGFR L858R/T790M/C797S; [4]): 0.2 nM
IC50 (EGFR Del19/C797S; [6]): 3.6 nM
IC50 (EGFR L858R/C797S; [8]): 21.6 nM
IC50 (EGFR wildtype (WT); IC50 WT (nM), 100 μM ATP): 7820 nM

CC1(CO)CCN(c2cc(Nc3ccnc(-c4cnn(S(=O)(=O)C5CC5)c4)n3)ncc2C#CC2(O)CCOCC2)CC1 [Example 195, 4-((6-((2-(1-(cyclopropylsulfonyl)-1H-pyrazol-4-yl)pyrimidin-4-yl)amino)-4-(4-(hydroxymethyl)-4-methylpiperidin-1-yl)pyridin-3-yl)ethynyl)tetrahydro-2H-pyran-4-ol]
IC50 (EGFR Del19/T790M/C797S; [1]): 0.3 nM
IC50 (EGFR Del19/T790M/C797S; [2]): 0.4 nM
IC50 (EGFR L858R/T790M/C797S; [3]): 0.1 nM
IC50 (EGFR L858R/T790M/C797S; [4]): 0.4 nM
IC50 (EGFR Del19/C797S; [5]): 2.4 nM
IC50 (EGFR Del19/C797S; [6]): 2.7 nM
IC50 (EGFR L858R/C797S; [7]): 2.3 nM
IC50 (EGFR L858R/C797S; [8]): 14.8 nM
IC50 (EGFR wildtype (WT); [9]): 19.6 nM
IC50 (EGFR wildtype (WT); IC50 WT (nM), 100 μM ATP): 8540 nM

Cc1nc(C#Cc2cnc(Nc3ccnc(-c4cnn(S(=O)(=O)C5CC5)c4)n3)cc2N2CCC(O)CC2)cs1 [Example 211, 1-(2-((2-(1-(Cyclopropylsulfonyl)-1H-pyrazol-4-yl)pyrimidin-4-yl)amino)-5-((2-methylthiazol-4-yl)ethynyl)pyridin-4-yl)piperidin-4-ol]
IC50 (EGFR Del19/T790M/C797S; [2]): 1.4 nM
IC50 (EGFR L858R/T790M/C797S; [4]): 6.9 nM
IC50 (EGFR Del19/C797S; [6]): 32.3 nM
IC50 (EGFR L858R/C797S; [8]): 66.2 nM
IC50 (EGFR wildtype (WT); IC50 WT (nM), 100 μM ATP): > 10000 nM

O=S(=O)(C1CC1)n1cc(-c2nccc(Nc3cc(N4CCC[C@@H](O)C4)c(C#Cc4cnn(CCF)c4)cn3)n2)cn1 [Example 440, (R)-1-(2-((2-(1-(Cyclopropylsulfonyl)-1H-pyrazol-4-yl)pyrimidin-4-yl)amino)-5-((1-(2-fluoroethyl)-1H-pyrazol-4-yl)ethynyl)pyridin-4-yl)piperidin-3-ol]
IC50 (EGFR Del19/T790M/C797S; [2]): 0.5 nM
IC50 (EGFR Del19/T790M/C797S; [10]): 0.5 nM
IC50 (EGFR L858R/T790M/C797S; [4]): 1.3 nM
IC50 (EGFR L858R/T790M/C797S; [11]): 0.5 nM
IC50 (EGFR Del19/C797S; [6]): 9.7 nM
IC50 (EGFR Del19/C797S; [12]): 7.6 nM
IC50 (EGFR L858R/C797S; [8]): 61.5 nM
IC50 (EGFR L858R/C797S; [13]): 10.3 nM
IC50 (EGFR wildtype (WT); IC50 WT (nM), 100 μM ATP): > 10000 nM
IC50 (EGFR wildtype (WT); [14]): 48.4 nM

Cn1cnc(C#Cc2cnc(Nc3ccnc(-c4cnn(S(=O)(=O)C5CC5)c4)n3)cc2NCC(C)(C)CO)c1 [Example 224, 3-((2-((2-(1-(Cyclopropylsulfonyl)-1H-pyrazol-4-yl)pyrimidin-4-yl)amino)-5-((1-methyl-1H-imidazol-4-yl)ethynyl)pyridin-4-yl)amino)-2,2-dimethylpropan-1-ol]
IC50 (EGFR Del19/T790M/C797S; [2]): 1.8 nM
IC50 (EGFR L858R/T790M/C797S; [4]): 26.1 nM
IC50 (EGFR Del19/C797S; [6]): 37.7 nM
IC50 (EGFR L858R/C797S; [8]): 286 nM
IC50 (EGFR wildtype (WT); IC50 WT (nM), 100 μM ATP): > 10000 nM

Reference: US11981658B2, “Substituted aminopyridine compounds as EGFR inhibitors” (YUHAN CORPORATION, priority 2021, dated 2024)
